Laboratory results: the supplement of paper PMC10307832

Legend:
Assay in all cases: relative viability (nuclei count vs DMSO), 5 days (fraction); higher = more cells survive
[1] = system: H3255
Outline: (§1)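 Relative viability is defined as nuclei in treated wells over nuclei in vehicle wells. Duplicate plates were run and medians reported. Lung cancer cell lines in 1536-well plates were dosed by pin tool one day after seeding, with one drug or with a fixed anchor-drug dose plus five library-drug doses (not always all listed) in √10 steps, and nuclei were counted after 5 days.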

[2] = system: SW 1573
Outline: as §1

[3] = system: NCI-H1437
Outline: as §1

[4] = system: LU99A
Outline: as §1

[5] = system: 201T
Outline: as §1

[6] = system: LCLC-97TM1
Outline: as §1

[7] = system: PC-3 [JPC-3]
Outline: as §1

[8] = system: NCI-H647
Outline: as §1

[9] = system: EPLC-272H
Outline: as §1

[10] = system: NCI-H2087
Outline: as §1

[11] = system: NCI-H2342
Outline: as §1

[12] = system: NCI-H358
Outline: as §1

[13] = system: HOP-62
Outline: as §1

[14] = system: HCC-827
Outline: as §1

[15] = system: NCI-H1666
Outline: as §1

[16] = system: BEN
Outline: as §1

[17] = system: COR-L 105
Outline: as §1

[18] = system: NCI-H1395
Outline: as §1

[19] = system: LOU-NH91
Outline: as §1

[20] = system: EKVX
Outline: as §1

[21] = system: NCI-H2085
Outline: as §1

[22] = system: NCI-H1975
Outline: as §1

O=C(O)c1ccc(-c2c[nH]c3ncc(-c4ccccc4)cc23)cc1C1CCCC1 + COc1cc2c(Oc3ccc(NC(=O)C4(C(=O)Nc5ccc(F)cc5)CC4)cc3F)ccnc2cc1OCCCN1CCOCC1 [Foretinib] (partner 0.25 µM)
relative viability ([1]; first compound 0.04 µM): 0.934 | relative viability ([1]; first compound 0.1265 µM): 1.08 | relative viability ([1]; first compound 0.4 µM): 0.888 | relative viability ([1]; first compound 1.265 µM): 0.814 | relative viability ([2]; first compound 0.04 µM): 0.977 | relative viability ([2]; first compound 0.1265 µM): 0.901 | relative viability ([2]; first compound 0.4 µM): 0.902 | relative viability ([2]; first compound 1.265 µM): 0.791 | relative viability ([3]; first compound 0.04 µM): 1.25 | relative viability ([3]; first compound 0.1265 µM): 1.19 | relative viability ([3]; first compound 0.4 µM): 1.11 | relative viability ([3]; first compound 1.265 µM): 0.923 | relative viability ([4]; first compound 0.04 µM): 0.803 | relative viability ([4]; first compound 0.1265 µM): 0.783 | relative viability ([4]; first compound 0.4 µM): 0.729 | relative viability ([4]; first compound 1.265 µM): 0.677 | relative viability ([5]; first compound 0.04 µM): 1.29 | relative viability ([5]; first compound 0.1265 µM): 1.25 | relative viability ([5]; first compound 0.4 µM): 1.11 | relative viability ([5]; first compound 1.265 µM): 0.958 | relative viability ([6]; first compound 0.04 µM): 0.911 | relative viability ([6]; first compound 0.1265 µM): 1.03 | relative viability ([6]; first compound 0.4 µM): 0.892 | relative viability ([6]; first compound 1.265 µM): 0.525 | relative viability ([7]; first compound 0.04 µM): 1 | relative viability ([7]; first compound 0.1265 µM): 1.14 | relative viability ([7]; first compound 0.4 µM): 0.978 | relative viability ([7]; first compound 1.265 µM): 0.61 | relative viability ([8]; first compound 0.04 µM): 1.33 | relative viability ([8]; first compound 0.1265 µM): 1.35 | relative viability ([8]; first compound 0.4 µM): 1.14 | relative viability ([8]; first compound 1.265 µM): 0.965 | relative viability ([9]; first compound 0.04 µM): 0.694 | relative viability ([9]; first compound 0.1265 µM): 0.752 | relative viability ([9]; first compound 0.4 µM): 0.585 | relative viability ([9]; first compound 1.265 µM): 0.187 | relative viability ([10]; first compound 0.04 µM): 0.933 | relative viability ([10]; first compound 0.1265 µM): 1.16 | relative viability ([10]; first compound 0.4 µM): 1.06 | relative viability ([10]; first compound 1.265 µM): 0.901 | relative viability ([11]; first compound 0.04 µM): 1.03 | relative viability ([11]; first compound 0.1265 µM): 1.11 | relative viability ([11]; first compound 0.4 µM): 1.18 | relative viability ([11]; first compound 1.265 µM): 0.991 | relative viability ([12]; first compound 0.04 µM): 0.768 | relative viability ([12]; first compound 0.1265 µM): 0.949 | relative viability ([12]; first compound 0.4 µM): 0.619 | relative viability ([12]; first compound 1.265 µM): 0.397 | relative viability ([13]; first compound 0.04 µM): 1.09 | relative viability ([13]; first compound 0.1265 µM): 1.21 | relative viability ([13]; first compound 0.4 µM): 1.01 | relative viability ([13]; first compound 1.265 µM): 0.815 | relative viability ([14]; first compound 0.04 µM): 0.914 | relative viability ([14]; first compound 0.1265 µM): 1.08 | relative viability ([14]; first compound 0.4 µM): 0.957 | relative viability ([14]; first compound 1.265 µM): 0.543 | relative viability ([15]; first compound 0.04 µM): 0.961 | relative viability ([15]; first compound 0.1265 µM): 0.959 | relative viability ([15]; first compound 0.4 µM): 0.921 | relative viability ([15]; first compound 1.265 µM): 0.441 | relative viability ([16]; first compound 0.04 µM): 0.586 | relative viability ([16]; first compound 0.1265 µM): 0.854 | relative viability ([16]; first compound 0.4 µM): 0.937 | relative viability ([16]; first compound 1.265 µM): 0.765 | relative viability ([17]; first compound 0.04 µM): 1.1 | relative viability ([17]; first compound 0.1265 µM): 1.43 | relative viability ([17]; first compound 0.4 µM): 0.886 | relative viability ([17]; first compound 1.265 µM): 1.22 | relative viability ([18]; first compound 0.04 µM): 0.983 | relative viability ([18]; first compound 0.1265 µM): 1.05 | relative viability ([18]; first compound 0.4 µM): 1.01 | relative viability ([18]; first compound 1.265 µM): 0.944 | relative viability ([19]; first compound 0.04 µM): 0.892 | relative viability ([19]; first compound 0.1265 µM): 1.03 | relative viability ([19]; first compound 0.4 µM): 0.927 | relative viability ([19]; first compound 1.265 µM): 0.781 | relative viability ([20]; first compound 0.04 µM): 0.826 | relative viability ([20]; first compound 0.1265 µM): 0.79 | relative viability ([20]; first compound 0.4 µM): 0.868 | relative viability ([20]; first compound 1.265 µM): 0.712 | relative viability ([21]; first compound 0.04 µM): 1.14 | relative viability ([21]; first compound 0.1265 µM): 0.988 | relative viability ([21]; first compound 0.4 µM): 0.845 | relative viability ([21]; first compound 1.265 µM): 0.56 | relative viability ([22]; first compound 0.04 µM): 0.964 | relative viability ([22]; first compound 0.1265 µM): 0.941 | relative viability ([22]; first compound 0.4 µM): 0.985 | relative viability ([22]; first compound 1.265 µM): 0.883
